Experiment [1] deals with homologous passive cutaneous anaphylaxis (PCA) reaction. The experiment can be described thus: Effect on homologous passive cutaneous anaphylaxis (PCA) reaction in rats. The conditions noted are these: 50 mg/kg oral, 1 hour before challenge (TABLE 2); for inhibition in vivo at 50 mg/kg: Rattus norvegicus, po, 0.5 h. Format: in vivo, rats (male wistar). As to the method:
Effect on homologous passive cutaneous anaphylaxis (PCA) reaction in rats.
This experimental animal model is caused by immediate type allergic reaction namely, antigen-antibody reaction. In the following, the method of this pharmacological test will be explained.
Method: Male wistar rats (9 weeks old) were intradermally administered 0.05 ml of anti-serum against dinitrophenylated ascaris (DNP-As) into two sites on the shaved dorsal skin. 48 hours later, 7-glycosyloxybenzopyran derivatives (test compounds) suspended in 0.5% sodium carboxymethylcellulose (CMCNa) were given orally at a dose of 50 mg/kg to the animals. One hour after administration of Test compounds, the animals were induced anaphylaxis by injection of saline (1 ml) dissolving 5 mg of Evans Blue and 1 mg of Trinitrophenylated ascaris (TNP-As) into the tail vein of the animals. 30 minutes after induction of anaphylaxis, animals were anesthetized by ether and killed by bleeding, and were flayed dorsal skin. The determination of extravasated dye was performed according to the method of Katayama et al. (Microbiol. Immunol., Vol.22, P 89-101, 1978). As vehicle control group, only 0.5% CMCNa solution was administered orally, and as positive control group, Tranilast suspended in 0.5% CMCNa was administered orally at a dose of 100 mg/kg to the animals with the same method as the test compounds groups. Each experimental group consisted of 5 rats. [formula]

In experiment [2] the test system is contact dermatitis induced by picryl chloride. The experiment can be described thus: Effect on contact dermatitis induced by picryl chloride in mice. It counts as in vivo. As to conditions: 50 mg/kg oral, 1 hour before and 16 hours after challenge, 24 hours after challenge; for inhibition in vivo at 50 mg/kg: Mus musculus, po, 24 h, read-out: Inhibition (%) against the increase of ear thickness. As to the method: Effect on contact dermatitis induced by picryl chloride in mice
The delayed type hypersensitization is inhibited by steroid drugs,but can not be effected by known anti-allergic agents. In the following, the method of the pharmacological test will be explained.
Method: Mice, shaved their abdominal skin on previous day, were immunized by applying 0.1 ml of acetone containing 7 mg of picryl chloride to the skin of the abdomen. 7 days after immunization, the thickness of the ear was measured with a dial thickness gauge, then mice were challenged by painting 5 μl of 1% picryl chloride olive oil solution to each side skin of left ear. 24 hours after challenge, the thickness of the left ear was measured again and the increase (%) of thickness was calculated according to equation 2. The compounds of the present invention (test compounds) suspended in 0.5% CMCNa were forcibly administered orally at a dose of 50 mg/kg at 1 hour before and 16 hours after challenge. As vehicle control group, only 0.5% CMCNa solution were administered orally, and as positive control group, Prednisolone, steroid hormone, and Tranilast were administered orally at the doses of 10 mg/kg and 100 mg/kg, respectively.
Increase (%)=(A-B)/B×100 (Equation 2)
A: thickness of the ear at 24 hours after challenge
B: thickness of the ear before challenge
Inhibition (%)=(C-D)/C×100 (equation 3)
C: The increase (%) in vehicle control group
D: The increase (%) in test compounds group or positive control group

Experiment [3] relates to experimental asthma model (airway resistance). Nature of the experiment: Effect on experimental asthma model in guinea pigs (airway resistance). It counts as in vivo, guinea pigs (male hartley). The conditions noted are these: 50 mg/kg oral (TABLE 6); for inhibition in vivo at 50 mg/kg: Cavia porcellus, po, 0.5 h. As to the method: Effect on experimental asthma model in guinea pigs
The asthma is typical allergic disease and we carried out this pharmacological test by well known experimental asthma model in guinea pigs in order to comfirm that the compounds of the present invention suppress the asthma. In the following, the method of the pharmacological test will be explained.
Method: Male hartley guinea pigs were immunized by intraperitoneal injection of saline (1ml) containing 5 mg of ovalbumine (OVA) three times at interval of one week. 2 weeks after final immunization, the animals were challenged by inhalation of 1% OVA-saline solution for 1 minute and then the airway resistance of the animals were measured for 30 minutes with PULMOS-1 (Medical Interface Project Station Inc.) after the inhalation. The compounds of the present invention (test compounds) suspended in 0.5% CMCNa were given orally at a dose of 50 mg/kg. As positive control group, Disodium Cromoglicate (DSCG), well known anti-allergic agent, in saline were injected at a dose of 20 mg/kg into the vein of the animals. As vehicle control group, only 0.5% CMCNa solution were given orally. The inhibition (%) of the airway resistance in vehicle control group was calculated according to equation 5 and the result was shown in TABLE 6. Each experimental group consisted of 5 guinea pigs. [formula]
A: Maximum airway resistance in vehicle control group
B: Maximum airway resistance in test compounds group or positive control group

Turning to `CC1CCC(Oc2c(O)c3ccc(O[C@@H]4O[C@H](CO)[C@H](O)[C@H](O)[C@H]4O)cc3oc2=O)CC1` (stereo partly drawn) [compound 92], the inhibition in vivo at 50 mg/kg in experiment [1] was found to be 58.9%; in experiment [2] it was 57.2%; in experiment [3] it was 65.2%.
On the same counts, the results for `C=COc1c(O)c2ccc(O[C@@H]3O[C@H](CO)[C@H](O)[C@H](O)[C@H]3O)cc2oc1=O` [compound 93] are 55.2%, 56.4% and 69.7%.
For `CCC=CCCOc1c(O)c2ccc(O[C@@H]3O[C@H](CO)[C@H](O)[C@H](O)[C@H]3O)cc2oc1=O` [compound 94] the same measures were 53.7%, 51.2% and 73.2%.
`CC(C)=CCC/C(C)=C/COc1c(O)c2ccc(O[C@@H]3O[C@H](CO)[C@H](O)[C@H](O)[C@H]3O)cc2oc1=O` [compound 95]: the inhibition in vivo at 50 mg/kg was found to be 54.2% in experiment [1], 55.8% in experiment [2] and 63.2% in experiment [3].
On the same counts, the results for `O=c1oc2cc(O[C@@H]3O[C@H](CO)[C@H](O)[C@H](O)[C@H]3O)ccc2c(O)c1OCc1ccccc1` [compound 96] are 50.1%, 48.9% and 58.2%.
Turning to `CCCCOc1c(OC(=O)CC)c(=O)oc2cc(O[C@@H]3O[C@H](COC(C)=O)[C@@H](OC(C)=O)[C@H](OC(C)=O)[C@H]3OC(C)=O)ccc12` [compound 99], the results for the inhibition in vivo at 50 mg/kg in experiment [1], in experiment [2] and in experiment [3] were 40.2%, 40.3% and 39.2%, respectively.
For `O=c1oc2cc(O[C@@H]3O[C@H](CO)[C@@H](O)[C@H](O)[C@H]3O)ccc2c(O)c1O` [compound 108] the same measures were 45.3%, 42.4% and 50.1%.
For the compound `COc1c(O)c(=O)oc2cc(O[C@@H]3O[C@H](CO)[C@@H](O)[C@H](O)[C@H]3O)ccc12` [compound 109], the inhibition in vivo at 50 mg/kg is 42.1% in experiment [1], 43.8% in experiment [2] and 53.1% in experiment [3].
On the same counts, the results for `CCCCOc1c(O)c(=O)oc2cc(O[C@@H]3O[C@H](CO)[C@@H](O)[C@H](O)[C@H]3O)ccc12` [compound 110] are 41.4%, 42.9% and 56.5%.
On the same counts, the results for `CCCCCCCCCCOc1c(O)c(=O)oc2cc(O[C@@H]3O[C@H](CO)[C@@H](O)[C@H](O)[C@H]3O)ccc12` [compound 111] are 43.1%, 41.2% and 61.3%.
On the same counts, the results for `CCCCCCCCCCCCOc1c(O)c(=O)oc2cc(O[C@@H]3O[C@H](CO)[C@@H](O)[C@H](O)[C@H]3O)ccc12` [compound 112] are 44.5%, 43.3% and 57.2%.
Turning to `CC(C)Oc1c(O)c(=O)oc2cc(O[C@@H]3O[C@H](CO)[C@@H](O)[C@H](O)[C@H]3O)ccc12` [compound 113], the results for the inhibition in vivo at 50 mg/kg in experiment [1], in experiment [2] and in experiment [3] were 40.3%, 45.5% and 56.6%, respectively.
Regarding `CC1CCC(Oc2c(O)c(=O)oc3cc(O[C@@H]4O[C@H](CO)[C@@H](O)[C@H](O)[C@H]4O)ccc23)CC1` (stereo partly drawn) [compound 114], the inhibition in vivo at 50 mg/kg in experiment [1] amounted to 45.3%; in experiment [2], 47.3%; in experiment [3] it was 59.7%.
Turning to `C=COc1c(O)c(=O)oc2cc(O[C@@H]3O[C@H](CO)[C@@H](O)[C@H](O)[C@H]3O)ccc12` [compound 115], the inhibition in vivo at 50 mg/kg worked out at 42.2% in experiment [1], 40.2% in experiment [2] and 53.1% in experiment [3].
On the same counts, the results for `CCC=CCCOc1c(O)c(=O)oc2cc(O[C@@H]3O[C@H](CO)[C@@H](O)[C@H](O)[C@H]3O)ccc12` [compound 116] are 46.1%, 44.4% and 62.8%.
Take `CC(C)=CCC/C(C)=C/COc1c(O)c(=O)oc2cc(O[C@@H]3O[C@H](CO)[C@@H](O)[C@H](O)[C@H]3O)ccc12` [compound 117]: the inhibition in vivo at 50 mg/kg in experiment [1] was 40.3%; in experiment [2], 42.3%; in experiment [3], 49.4%.
In the case of `O=c1oc2cc(O[C@@H]3O[C@H](CO)[C@@H](O)[C@H](O)[C@H]3O)ccc2c(OCc2ccccc2)c1O` [compound 118], in experiment [1], the “Inhibition (%) of PCA reaction” value was 41.2%. Further, the “Inhibition (%) against the increase of ear thickness” value in experiment [2] was found to be 43.5%. Moreover, the “Inhibition (%) of the airway resistance” value in experiment [3] is 45.3%.
On the same counts, the results for `O=c1oc2cc(O[C@H]3O[C@H](CO)[C@@H](O)[C@H](O)[C@@H]3O)ccc2c(O)c1O` [compound 130] are 40.1%, 41.2% and 40.2%.
In the case of `COc1c(O)c(=O)oc2cc(O[C@H]3O[C@H](CO)[C@@H](O)[C@H](O)[C@@H]3O)ccc12` [compound 131], the inhibition in vivo at 50 mg/kg in experiment [1] stood at 41.2%; in experiment [2], 40.9%; in experiment [3], 42.5%.
For `CCCCCCCCOc1c(O)c(=O)oc2cc(O[C@H]3O[C@H](CO)[C@@H](O)[C@H](O)[C@@H]3O)ccc12` [compound 132] the same measures were 42.9%, 43.2% and 50.1%.
For `CCCCCCCCCCOc1c(O)c(=O)oc2cc(O[C@H]3O[C@H](CO)[C@@H](O)[C@H](O)[C@@H]3O)ccc12` [compound 133] the same measures were 42.3%, 41.4% and 43.2%.
On the same counts, the results for `CCCCCCCCCCCCOc1c(O)c(=O)oc2cc(O[C@H]3O[C@H](CO)[C@@H](O)[C@H](O)[C@@H]3O)ccc12` [compound 134] are 41.5%, 43.7% and 45.9%.
For the compound `CC(C)Oc1c(O)c(=O)oc2cc(O[C@H]3O[C@H](CO)[C@@H](O)[C@H](O)[C@@H]3O)ccc12` [compound 135], the values for the inhibition in vivo at 50 mg/kg in experiment [1], in experiment [2] and in experiment [3] were 40.3%, 44.6% and 47.1%, respectively.
Turning to `CC1CCC(Oc2c(O)c(=O)oc3cc(O[C@H]4O[C@H](CO)[C@@H](O)[C@H](O)[C@@H]4O)ccc23)CC1` (stereo partly drawn) [compound 136], the inhibition in vivo at 50 mg/kg in experiment [1] came to 42.2%; in experiment [2], 41.2%; in experiment [3], 51.2%.
On the same counts, the results for `C=COc1c(O)c(=O)oc2cc(O[C@H]3O[C@H](CO)[C@@H](O)[C@H](O)[C@@H]3O)ccc12` [compound 137] are 41.7%, 43.5% and 45.4%.

The values are drawn from patent US5580552A, “7-glycosyloxybenzopyran derivative and antiallergic agent containing the derivative as active ingredient” (priority 1994, dated 1996).
